pIC50: −log10 of the molar value.
What was measured:
[1] = biological target: GCN2 kinase (Homo sapiens (Human), UniProt Q9P2K8); experiment: Biochemical assay for GCN2 (TR-FRET kinase activity assay); conditions: 1 mM ATP, 3-hour incubation
How it was run: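 TR-FRET assay with 2 nM GCN2, 130 nM GFP-eIF2α substrate, 0.2 mg/mL E. coli tRNA and 1 mM ATP; compounds (0.5% DMSO) reacted 3 h. Stopped with 20 mM EDTA plus 2 nM Tb-anti-peIF2α (pSer52), 60 min RT; 520/490 ratio converted to % inhibition, IC50 from four-parameter fit.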

[2] = biological target: PERK kinase (Homo sapiens (Human), UniProt Q9NZJ5); experiment: Biochemical assay for PERK (coupled pyruvate kinase/lactate dehydrogenase assay); conditions: 1 mM ATP, rate from 2-3 h time frame
Sequence of PERK kinase (Q9NZJ5 other isoform, or with tags, fused parts or gaps): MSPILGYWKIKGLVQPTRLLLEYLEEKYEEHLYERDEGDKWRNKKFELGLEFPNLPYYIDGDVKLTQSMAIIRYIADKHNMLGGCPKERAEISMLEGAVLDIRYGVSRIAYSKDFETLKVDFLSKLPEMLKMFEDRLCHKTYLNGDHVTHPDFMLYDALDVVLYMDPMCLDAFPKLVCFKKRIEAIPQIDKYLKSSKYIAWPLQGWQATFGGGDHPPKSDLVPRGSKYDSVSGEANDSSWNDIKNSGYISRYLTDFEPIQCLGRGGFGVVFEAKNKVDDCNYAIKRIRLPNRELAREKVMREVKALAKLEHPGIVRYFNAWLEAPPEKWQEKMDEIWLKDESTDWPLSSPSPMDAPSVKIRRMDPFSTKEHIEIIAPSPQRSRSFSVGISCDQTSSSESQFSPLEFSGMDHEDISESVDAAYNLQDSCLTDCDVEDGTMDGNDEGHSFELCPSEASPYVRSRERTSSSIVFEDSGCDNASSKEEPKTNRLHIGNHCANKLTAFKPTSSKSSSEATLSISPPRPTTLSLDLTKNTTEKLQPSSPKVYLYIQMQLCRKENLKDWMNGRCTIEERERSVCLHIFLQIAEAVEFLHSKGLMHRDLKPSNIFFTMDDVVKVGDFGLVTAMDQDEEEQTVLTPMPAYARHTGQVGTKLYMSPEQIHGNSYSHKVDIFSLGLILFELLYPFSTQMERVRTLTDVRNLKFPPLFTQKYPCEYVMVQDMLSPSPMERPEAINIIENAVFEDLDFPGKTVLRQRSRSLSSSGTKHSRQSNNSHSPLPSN
How it was run: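 Coupled pyruvate kinase/lactate dehydrogenase readout of ATP hydrolysis via NADH oxidation (A340), 10 nM PERK, 0.25 mg/mL myelin basic protein, 1 mM ATP, pH 7.5 Tris/MgCl2 buffer, 1% DMSO. Absorbance followed 6 h at 30° C; rate from the 2-3 h window, normalised to no-compound and known-inhibitor controls, IC50 fitted.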

[3] = system: CCRF-CEM leukemia cells; experiment: CCRF-CEM ASNase cell proliferation assay, phenotypic assay for cellular inhibition of GCN2; type: cell-based; conditions: Homo sapiens; ASNase treated CCRF-CEM cells, 1 mU/mL ASNase, 72 h
Description: CCRF-CEM leukemia cells (catalog #CCL-116) were obtained from the American Type Culture Collect (ATTC, Manassas, VA). Cells were grown in RPMI-1640 medium supplemented with 10% heat-inactivated fetal bovine serum (Invitrogen, Carlsbad, CA) and 1% Penicillin/Streptomycin/L-Glutamine at 37° C., 5% CO2, and 95% humidity. Cells were expanded until reaching one million cells per mL at which time they are subcultured or harvested for assay use. Ten thousand cells per well in 200 μL RPMI-1640 supplemented with 10% heat-inactivated fetal bovine serum and 1% Penicillin/Streptomycin were dispensed into a 96-well black clear bottom plate. A serial dilution of test compound and 1 mU/mL ASNase was added in triplicate and plates were incubated for 72 h at 37° C., 5% CO2, and 95% humidity. At the end of the incubation, 40 μL of a […] solution of resazurin (Sigma, St. Louis, MO) in PBS was added to each well of the plate and plates were incubated for an additional 6 h at 37° C., 5% CO2, and 95% humidity. Plates were read on a Synergy2 or equivalent reader (Biotek, Winooski VT) using an excitation of 540 nm and an emission of 600 nm. Data was analyzed using GraphPad Prism software (GraphPad, San Diego, CA) to calculate IC50 values.

[4] = system: phospho-GCN2 (Thr899) in HCT116 colorectal cancer cells; experiment: HCT116 amino acid starved (-AA) phospho-GCN2 assay (Western blot); type: cell-based; conditions: Homo sapiens, HCT-116, 4 h, read-out: HCT116-AA pGCN2 Western Blot
Description: (§1) HCT116 colorectal cancer cells (catalog #CCL-247) were obtained from the American Type Culture Collect (ATTC, Manassas, VA). Briefly, cells were grown in RPMI 1640 supplemented with 10% heat inactivated fetal bovine serum (Invitrogen, Carlsbad, CA) and 1% Penicillin/Streptomycin/L-Glutamine at 37° C., 5% CO2, and 95% humidity. Cells were expanded until reaching 70-95% confluency at which point they were subcultured or harvested for assay use. Cells were seeded in 12-well culture plate at five hundred thousand cells per well in 1 mL complete growth medium and incubated overnight at 37° C., 5% CO2, and 95% humidity. The next day each well was replaced with 1 mL Earle's Balanced Salt Solution (EBSS, Invitrogen, Carlsbad, CA) supplemented with 10% Dialyzed Fetal Bovine Serum, 5.5 mM Glucose, 1% Penicillin/Streptomycin and 1% Vitamin solution (thermo #11120052). A serial dilution of test compound was dispensed into well. Plates were incubated for 4 h at 37° C., 5% CO2, and 95% humidity. At the end of the incubation, cells were washed with PBS supplemented with 1× Halt protease inhibitor, 1× Halt phosphatase inhibitor, 1× Sigma phosphatase inhibitor cocktail 2 and 1×EDTA and then lysed with M-PER Mammalian Protein Extraction Reagent supplemented with 3× of the inhibitor mix as described above. Cell lysates were sonicated with water bath sonicator (Qsonica, Newtown, CT) and supernatants were boiled with SDS buffer and reducing agent. Western blot was performed on each lysate to quantify phospho-GCN2 (Thr899), total GCN2, ATF4 and beta-Actin. Membranes were imaged with LI-COR Odyssey CLx Imaging System (LI-COR, Lincoln, NE). Data were analyzed using GraphPad Prism software (GraphPad, San Diego, CA) to calculate IC50 values.

[5] = system: ATF4 in HCT116 colorectal cancer cells; experiment: HCT116 amino acid starved (-AA) ATF4 assay (Western blot); type: cell-based; conditions: Homo sapiens, HCT-116, 4 h
Description: as §1

[6] = system: ATF4 in CCRF-CEM leukemia cells (PERK); experiment: CCRF-CEM TG ATF4 ELISA, phenotypic assay for cellular inhibition of PERK preactivated by thapsigargin; type: cell-based; conditions: Homo sapiens; Thapsigargin (1 μM) stimulated CCRF-CEM cells
Description: CCRF-CEM leukemia cells (catalog #CCL-116) were obtained from the American Type Culture Collection (ATTC, Manassas, VA). Briefly, cells were grown in RPMI-1640 medium supplemented with 10% heat-inactivated fetal bovine serum (Invitrogen, Carlsbad, CA) and 1% Penicillin/Streptomycin/L-Glutamine at 37° C., 5% CO2, and 95% humidity. Cells were expanded until reaching one million cells per mL at which time they were subcultured or harvested for assay use. One million five hundred thousand cells per well in 1 mL complete growth medium were dispensed into 12-well plates and incubated overnight. A serial dilution of test compound was added and cells were incubated at 37° C., 5% CO2, and 95% for three hours, then 1 μM thapsigargin was added and cells were incubated for an additional hour at 37° C., 5% CO2, and 95%. Cells were lysed then ATF4 levels were measured using an ELISA assay (Proteintech, Rosemont, IL). Absorbance was measured at 450 nm and 544 nM using a Synergy2 or equivalent reader (Biotek, Winooski VT). Data was analyzed using PRISM software (Graphpad, San Diego, CA) to calculate IC50 values.

Sequence of GCN2 kinase (Q9P2K8 whole entry): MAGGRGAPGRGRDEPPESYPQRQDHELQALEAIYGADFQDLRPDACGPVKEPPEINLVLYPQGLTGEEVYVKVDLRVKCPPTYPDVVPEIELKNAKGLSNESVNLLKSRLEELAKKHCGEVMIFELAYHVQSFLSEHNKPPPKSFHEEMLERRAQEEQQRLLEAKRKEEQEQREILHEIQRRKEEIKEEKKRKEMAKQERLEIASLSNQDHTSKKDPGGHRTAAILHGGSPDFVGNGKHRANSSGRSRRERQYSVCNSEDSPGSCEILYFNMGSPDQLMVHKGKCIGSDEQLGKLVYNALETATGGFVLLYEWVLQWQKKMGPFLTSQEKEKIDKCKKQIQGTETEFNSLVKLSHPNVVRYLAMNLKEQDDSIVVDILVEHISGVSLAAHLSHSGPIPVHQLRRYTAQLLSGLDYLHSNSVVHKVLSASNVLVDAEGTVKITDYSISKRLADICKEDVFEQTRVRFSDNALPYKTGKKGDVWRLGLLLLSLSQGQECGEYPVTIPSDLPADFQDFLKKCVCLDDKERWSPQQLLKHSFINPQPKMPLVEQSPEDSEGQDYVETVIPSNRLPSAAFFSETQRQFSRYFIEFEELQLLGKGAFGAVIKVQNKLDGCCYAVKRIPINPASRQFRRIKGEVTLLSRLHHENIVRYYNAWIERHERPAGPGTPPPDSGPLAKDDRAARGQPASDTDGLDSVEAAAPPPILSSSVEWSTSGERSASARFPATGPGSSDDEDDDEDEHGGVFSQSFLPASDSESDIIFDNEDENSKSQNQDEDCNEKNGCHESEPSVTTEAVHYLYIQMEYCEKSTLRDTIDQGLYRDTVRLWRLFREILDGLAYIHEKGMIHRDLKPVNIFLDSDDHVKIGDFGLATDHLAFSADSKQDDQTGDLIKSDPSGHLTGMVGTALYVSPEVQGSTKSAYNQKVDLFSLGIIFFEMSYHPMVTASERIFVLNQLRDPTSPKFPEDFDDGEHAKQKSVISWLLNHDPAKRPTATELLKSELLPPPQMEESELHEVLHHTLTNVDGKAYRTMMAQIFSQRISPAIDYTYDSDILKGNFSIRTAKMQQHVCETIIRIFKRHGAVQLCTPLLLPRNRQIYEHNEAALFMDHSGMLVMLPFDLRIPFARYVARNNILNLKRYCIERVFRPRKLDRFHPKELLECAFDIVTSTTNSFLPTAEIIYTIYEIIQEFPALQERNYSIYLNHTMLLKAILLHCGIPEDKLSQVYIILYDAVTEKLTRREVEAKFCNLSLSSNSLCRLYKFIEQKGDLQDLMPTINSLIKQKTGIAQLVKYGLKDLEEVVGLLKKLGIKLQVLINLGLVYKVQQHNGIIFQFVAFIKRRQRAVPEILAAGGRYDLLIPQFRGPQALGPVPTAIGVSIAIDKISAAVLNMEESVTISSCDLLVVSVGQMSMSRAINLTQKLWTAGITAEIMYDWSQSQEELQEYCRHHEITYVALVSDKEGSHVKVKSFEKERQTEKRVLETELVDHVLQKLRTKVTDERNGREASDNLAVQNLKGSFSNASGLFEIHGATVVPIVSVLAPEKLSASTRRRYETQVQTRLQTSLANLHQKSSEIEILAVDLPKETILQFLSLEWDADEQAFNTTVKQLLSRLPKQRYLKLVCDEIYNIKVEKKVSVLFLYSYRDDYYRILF

Compound	pIC50 [1]	pIC50 [2]	pIC50 [3]	pIC50 [4]	pIC50 [5]	pIC50 [6]
CNc1ncc2cc(-c3cccc(NS(=O)(=O)c4cc(Cl)cnc4OC)c3C#N)c(C)nc2n1 [Example 95]	≥ 7.00	6.30 to 7.00	6.30 to 7.00	≥ 7.00	6.30 to 7.00	5.00 to 6.00
COc1ncc(Cl)cc1S(=O)(=O)Nc1cccc(-c2cc3cnc(Nc4cnn(C)c4)nc3nc2C)c1F [Example 88]	≥ 7.00	≥ 7.00	≥ 7.00	≥ 7.00	≥ 7.00	6.30 to 7.00
CNc1ncc2cc(-c3cccc(NS(=O)(=O)c4cc(Cl)cnc4NC)c3F)c(C)nc2n1 [Example 90]	≥ 7.00	≥ 7.00	≥ 7.00	≥ 7.00	≥ 7.00	5.00 to 6.00
CNc1cc2nc(C)c(-c3cccc(NS(=O)(=O)c4cc(Cl)cnc4OC)c3Cl)cc2cn1 [Example 127]	≥ 7.00	≥ 7.00	≥ 7.00	≥ 7.00	≥ 7.00	6.00 to 6.30
CNc1ncc2cc(-c3cc(NS(=O)(=O)c4cc(Cl)cnc4OC)ccc3C)c(C)nc2n1 [Example 53]	≥ 7.00	6.30 to 7.00	≥ 7.00	≥ 7.00	≥ 7.00	5.00 to 6.00
CNc1ncc2cc(-c3cc(NS(=O)(=O)c4cc(Cl)cnc4OC)ccc3Cl)c(C)nc2n1 [Example 68]	≥ 7.00	≥ 7.00	≥ 7.00	≥ 7.00	≥ 7.00	5.00 to 6.00
COc1ncc(Cl)cc1S(=O)(=O)Nc1cccc(-c2ccc3nc(N)ncc3c2)c1F [Example 33]	≥ 7.00	≥ 7.00	6.30 to 7.00	≥ 7.00	≥ 7.00	5.00 to 6.00
COc1ncc(Cl)cc1S(=O)(=O)Nc1cccc(-c2cc3cnc(N)cc3nc2C)c1Cl [Example 121]	≥ 7.00	≥ 7.00	≥ 7.00	≥ 7.00	≥ 7.00	6.30 to 7.00
CNc1cc2nc(NC)c(-c3cccc(NS(=O)(=O)c4cc(Cl)cnc4OC)c3F)cc2cn1 [Example 114]	≥ 7.00	≥ 7.00	≥ 7.00	≥ 7.00	6.30 to 7.00	5.00 to 6.00
CNc1ncc2cc(-c3cc(F)cc(NS(=O)(=O)c4cc(Cl)cc(CO)c4Cl)c3)c(NC)nc2n1 [Example 57]	≥ 7.00	≥ 7.00	≥ 7.00	≥ 7.00	≥ 7.00	5.00 to 6.00
CNc1ncc2cc(-c3cc(NS(=O)(=O)c4cc(Cl)cnc4OC)cc(F)c3F)c(C)nc2n1 [Example 48]	≥ 7.00	6.30 to 7.00	6.30 to 7.00	≥ 7.00	≥ 7.00	5.00 to 6.00
CNc1nc2nc(NC(C)=O)ncc2cc1-c1cccc(NS(=O)(=O)c2cc(Cl)cnc2OC)c1F [Example 158]	≥ 7.00	6.30 to 7.00	≥ 7.00	≥ 7.00	≥ 7.00	5.00 to 6.00
CNc1nc2nc(NC(C)C)ncc2cc1-c1cccc(NS(=O)(=O)c2cc(Cl)cnc2OC)c1F [Example 117]	≥ 7.00	6.30 to 7.00	6.30 to 7.00	6.30 to 7.00	6.30 to 7.00	5.00 to 6.00
CNc1ncc2cc(-c3cccc(NS(=O)(=O)c4cc(Cl)cnc4NC)c3F)ccc2n1 [Example 50]	≥ 7.00	≥ 7.00	≥ 7.00	≥ 7.00	≥ 7.00	5.00 to 6.00
CNc1ncc2cc(-c3cccc(NS(=O)(=O)c4cc(Cl)ccc4OC)c3F)c(NC)nc2n1 [Example 148]	≥ 7.00	≥ 7.00	≥ 7.00	≥ 7.00	≥ 7.00	5.00 to 6.00
CNc1ncc2cc(-c3cccc(NS(=O)(=O)c4cc(Cl)cnc4OC)c3Cl)c(C)nc2n1 [Example 67]	≥ 7.00	≥ 7.00	≥ 7.00	≥ 7.00	≥ 7.00	5.00 to 6.00
CNc1cc2nc(C)c(-c3cc(F)cc(NS(=O)(=O)c4cc(Cl)cnc4OC)c3)cc2cn1 [Example 23]	≥ 7.00	≥ 7.00	6.30 to 7.00	≥ 7.00	≥ 7.00	5.00 to 6.00
CNc1ncc2cc(-c3cccc(NS(=O)(=O)c4cc(Cl)cnc4OC)c3C)c(C)nc2n1 [Example 51]	≥ 7.00	6.30 to 7.00	≥ 7.00	≥ 7.00	≥ 7.00	5.00 to 6.00
CNc1cc2ncc(-c3cccc(NS(=O)(=O)c4cc(Cl)cnc4OC)c3F)cc2cn1 [Example 56]	6.30 to 7.00	≥ 7.00	≥ 7.00	≥ 7.00	≥ 7.00	6.00 to 6.30
CNc1ncc2cc(-c3cccc(NS(=O)(=O)c4cc(Cl)cc(C(=O)OC)c4Cl)c3F)c(NC)nc2n1 [Example 102]	≥ 7.00	6.30 to 7.00	≥ 7.00	≥ 7.00	≥ 7.00	5.00 to 6.00
CNc1nc2nc(NC3CC3)ncc2cc1-c1cccc(NS(=O)(=O)c2cc(Cl)cnc2OC)c1F [Example 111]	≥ 7.00	6.30 to 7.00	6.30 to 7.00	6.30 to 7.00	≥ 7.00	5.00 to 6.00
CNc1ncc2cc(-c3cc(NS(=O)(=O)c4cc(Cl)cnc4OC)c(F)cc3C)c(C)nc2n1 [Example 17]	6.00 to 6.30	6.30 to 7.00	5.00 to 6.00	6.30 to 7.00	5.00 to 6.00	5.00 to 6.00
CNc1cc2nc(C)c(-c3ccc(F)c(NS(=O)(=O)c4cc(Cl)cc(CO)c4Cl)c3)cc2cn1 [Example 19]	≥ 7.00	≥ 7.00	6.30 to 7.00	≥ 7.00	≥ 7.00	5.00 to 6.00
CNc1ncc2cc(-c3cccc(NS(=O)(=O)c4cc(Cl)cnc4OC)c3F)c(NCCO)nc2n1 [Example 97]	≥ 7.00	6.30 to 7.00	≥ 7.00	≥ 7.00	6.30 to 7.00	5.00 to 6.00

From patent US11912668B2, “GCN2 and perk kinase inhibitors and methods of use thereof” (Deciphera Pharmaceuticals, LLC, priority 2020, dated 2024)
